# Assay results reported in ChEMBL document CHEMBL3745662, “Preliminary investigation of 6,7-dihydropyrazolo[1,5-a]pyrazin-4-one derivatives as a novel series of mGlu5 receptor positive allosteric modulators with efficacy in preclinical models of schizophrenia” (Bioorg Med Chem Lett, 2016).
# The source made the active and inactive calls. The calls are words filed in the database; no cut-off is given here.
# Experiments:
# [1] = molecular target: T1, Metabotropic glutamate receptor 5 (Homo sapiens, UniProt P41594); assay: Positive allosteric modulation of human mGlu5 expressed in HEK293 cells assessed as glutamate-induced calcium mobilization; format: functional, cell-based
# Target sequence in this assay (P41594 whole entry): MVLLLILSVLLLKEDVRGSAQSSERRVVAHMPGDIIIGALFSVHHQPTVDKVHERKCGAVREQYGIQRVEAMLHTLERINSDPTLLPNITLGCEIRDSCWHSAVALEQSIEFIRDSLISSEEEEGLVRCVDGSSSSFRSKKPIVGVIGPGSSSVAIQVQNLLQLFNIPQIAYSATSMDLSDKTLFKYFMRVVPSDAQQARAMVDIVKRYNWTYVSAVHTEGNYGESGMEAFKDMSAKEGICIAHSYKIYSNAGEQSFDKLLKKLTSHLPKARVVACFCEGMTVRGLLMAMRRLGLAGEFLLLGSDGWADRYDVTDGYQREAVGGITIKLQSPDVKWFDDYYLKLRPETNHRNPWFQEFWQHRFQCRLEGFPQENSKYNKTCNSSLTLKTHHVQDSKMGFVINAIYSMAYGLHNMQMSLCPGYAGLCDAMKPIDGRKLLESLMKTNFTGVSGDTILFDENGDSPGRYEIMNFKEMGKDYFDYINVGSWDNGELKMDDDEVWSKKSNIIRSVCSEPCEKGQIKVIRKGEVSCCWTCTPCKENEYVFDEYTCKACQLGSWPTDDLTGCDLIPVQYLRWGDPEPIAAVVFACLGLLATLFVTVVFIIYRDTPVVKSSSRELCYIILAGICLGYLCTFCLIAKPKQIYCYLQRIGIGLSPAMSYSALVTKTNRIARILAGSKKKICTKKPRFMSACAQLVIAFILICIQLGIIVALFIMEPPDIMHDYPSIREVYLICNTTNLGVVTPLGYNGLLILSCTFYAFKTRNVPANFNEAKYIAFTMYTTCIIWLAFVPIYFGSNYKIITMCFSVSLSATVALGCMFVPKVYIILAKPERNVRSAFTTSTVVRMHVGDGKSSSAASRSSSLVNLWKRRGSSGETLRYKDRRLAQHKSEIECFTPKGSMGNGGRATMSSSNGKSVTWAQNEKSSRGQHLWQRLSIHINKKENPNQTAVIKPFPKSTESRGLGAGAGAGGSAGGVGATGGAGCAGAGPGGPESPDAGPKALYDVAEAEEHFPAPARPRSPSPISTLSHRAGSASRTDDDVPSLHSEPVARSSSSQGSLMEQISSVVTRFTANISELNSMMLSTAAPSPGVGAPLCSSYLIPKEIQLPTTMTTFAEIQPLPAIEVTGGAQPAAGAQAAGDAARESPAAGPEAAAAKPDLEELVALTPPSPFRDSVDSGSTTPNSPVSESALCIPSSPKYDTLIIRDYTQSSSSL
# [2] = molecular target: T1, Metabotropic glutamate receptor 5; assay: Positive allosteric modulation of human mGlu5 expressed in HEK293 cells assessed as glutamate-induced calcium mobilization relative to glutamate; format: functional, cell-based
# Target sequence in this assay (P41594 21-1212 limits assumed): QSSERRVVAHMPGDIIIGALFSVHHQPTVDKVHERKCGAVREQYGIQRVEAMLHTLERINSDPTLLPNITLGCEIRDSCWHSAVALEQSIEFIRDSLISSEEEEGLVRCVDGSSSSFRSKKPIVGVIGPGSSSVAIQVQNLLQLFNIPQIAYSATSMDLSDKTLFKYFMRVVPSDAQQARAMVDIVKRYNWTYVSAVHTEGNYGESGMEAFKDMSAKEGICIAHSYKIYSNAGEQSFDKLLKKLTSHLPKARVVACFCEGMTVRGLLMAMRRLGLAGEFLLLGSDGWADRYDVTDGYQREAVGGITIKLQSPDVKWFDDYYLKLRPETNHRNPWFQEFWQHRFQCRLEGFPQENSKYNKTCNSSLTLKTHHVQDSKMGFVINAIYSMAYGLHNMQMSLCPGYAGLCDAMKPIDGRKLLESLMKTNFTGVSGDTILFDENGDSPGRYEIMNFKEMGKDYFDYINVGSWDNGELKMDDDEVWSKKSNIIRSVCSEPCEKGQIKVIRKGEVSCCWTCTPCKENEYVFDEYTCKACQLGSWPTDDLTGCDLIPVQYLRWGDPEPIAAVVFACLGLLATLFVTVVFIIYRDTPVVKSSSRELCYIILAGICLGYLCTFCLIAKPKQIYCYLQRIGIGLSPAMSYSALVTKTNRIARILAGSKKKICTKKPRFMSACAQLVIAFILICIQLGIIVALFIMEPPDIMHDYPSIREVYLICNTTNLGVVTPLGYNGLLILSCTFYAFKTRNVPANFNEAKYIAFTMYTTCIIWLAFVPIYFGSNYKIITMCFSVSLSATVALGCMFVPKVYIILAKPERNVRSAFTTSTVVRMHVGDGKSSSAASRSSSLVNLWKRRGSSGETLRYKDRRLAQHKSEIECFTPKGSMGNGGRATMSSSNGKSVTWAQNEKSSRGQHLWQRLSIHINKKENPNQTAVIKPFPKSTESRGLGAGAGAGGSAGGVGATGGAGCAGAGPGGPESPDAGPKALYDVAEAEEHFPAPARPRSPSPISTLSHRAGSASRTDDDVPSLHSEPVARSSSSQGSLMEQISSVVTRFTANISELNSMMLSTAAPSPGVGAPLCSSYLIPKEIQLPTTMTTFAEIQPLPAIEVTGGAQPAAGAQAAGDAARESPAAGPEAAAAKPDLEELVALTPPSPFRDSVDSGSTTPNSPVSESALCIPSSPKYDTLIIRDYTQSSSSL
# [3] = molecular target: Metabotropic glutamate receptor 3 (Homo sapiens, UniProt Q14832); assay: Antagonist activity at human mGlu3 expressed in HEK293 cells assessed as inhibition of glutamate-induced calcium mobilization; format: functional, cell-based
# [4] = Oral bioavailability in rat at 10 mg/kg; format: ADME, organism-based; details: in vivo
# [5] = Percentage unbound in rat brain; format: ADME, tissue-based; details: brain tissue
# [6] = Plasma clearance in dog at 0.5 mg/kg, iv; format: ADME, organism-based, Canis lupus familiaris
# Rattus norvegicus [7] = assay: Toxicity in Sprague-Dawley rat assessed as mortality at 600 mg/kg, po; format: organism-based; details: in vivo
# [8] = molecular target: Metabotropic glutamate receptor 6 (Rattus norvegicus, UniProt P35349); assay: Positive allosteric modulation of rat mGlu6 receptor expressed in CHO cells by [35S]-GTPgammaS binding assay; format: functional, cell-based
# Cytochrome P450 1A2 = molecular target: T2, Cytochrome P450 1A2 (Homo sapiens, UniProt P05177); assay: Inhibition of CYP1A2 (unknown origin); format: ADME
# T2 sequence (P05177 whole entry): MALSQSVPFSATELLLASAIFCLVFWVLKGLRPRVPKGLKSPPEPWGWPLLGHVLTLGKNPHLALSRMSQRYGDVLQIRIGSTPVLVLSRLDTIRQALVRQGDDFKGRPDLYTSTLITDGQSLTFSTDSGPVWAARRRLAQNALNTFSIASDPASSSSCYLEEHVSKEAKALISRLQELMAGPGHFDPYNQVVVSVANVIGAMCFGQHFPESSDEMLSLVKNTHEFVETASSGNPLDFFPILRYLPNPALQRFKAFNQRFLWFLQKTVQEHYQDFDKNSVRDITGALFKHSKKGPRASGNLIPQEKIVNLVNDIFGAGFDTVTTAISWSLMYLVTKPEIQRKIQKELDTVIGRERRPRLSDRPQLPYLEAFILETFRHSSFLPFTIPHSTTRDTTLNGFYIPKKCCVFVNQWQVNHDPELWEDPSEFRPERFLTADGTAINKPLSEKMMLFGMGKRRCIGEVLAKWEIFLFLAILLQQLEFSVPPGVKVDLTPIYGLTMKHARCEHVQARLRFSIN
# Cytochrome P450 3A4 = Cytochrome P450 3A4 (Homo sapiens, UniProt P08684); assay: Inhibition of CYP3A4 (unknown origin); format: ADME
# [9] = molecular target: T3, Metabotropic glutamate receptor 4 (Homo sapiens, UniProt Q14833); assay: Positive allosteric modulation of human mGlu4 receptor expressed in HEK293 cells assessed as calcium mobilization by fluorescence analysis; format: functional, cell-based
# [10] = Oral bioavailability in dog at 5 mg/kg; format: ADME, organism-based, Canis lupus familiaris; details: in vivo
# [11] = Inhibition of Sodium channel (unknown origin); set-up: species or system Homo sapiens
# [12] = Plasma clearance in rat at 2.5 mg/kg, iv; format: ADME, organism-based
# Rattus norvegicus [13] = assay: Toxicity in Sprague-Dawley rat assessed as complusive behavior at 25 to 600 mg/kg, po; format: organism-based; details: in vivo
# [14] = molecular target: T3, Metabotropic glutamate receptor 4; assay: Positive allosteric modulation of human mGlu4 receptor expressed in L929sA cells by [35S]-GTPgammaS binding assay; format: functional, cell-based
# [15] = Cmax in rat at 10 mg/kg, po; format: ADME, organism-based; set-up: dose 10 mg/kg, route oral; details: in vivo
# [16] = molecular target: Voltage-gated inwardly rectifying potassium channel KCNH2 (Homo sapiens, UniProt Q12809); assay: Inhibition of human ERG
# [17] = molecular target: Metabotropic glutamate receptor 8 (Homo sapiens, UniProt O00222); assay: Positive allosteric modulation of human mGlu8 receptor expressed in HEK293 cells assessed as calcium mobilization by fluorescence analysis; format: functional, cell-based
# [18] = Plasma protein binding in rat assessed as percentage unbound; format: ADME, cell-free
# [19] = Volume of distribution at steady state in dog at 0.5 mg/kg, iv; format: ADME, organism-based, Canis lupus familiaris; details: in vivo, read-out: Vdss
# [20] = molecular target: Metabotropic glutamate receptor 1 (Homo sapiens, UniProt Q13255); assay: Positive allosteric modulation of human mGlu1 receptor expressed in HEK293 cells assessed as calcium mobilization by fluorescence analysis; format: functional, cell-based
# [21] = Half life in rat at 2.5 mg/kg, iv; format: ADME, organism-based; details: in vivo
# [22] = molecular target: Platelet-activating factor receptor (Homo sapiens) (UniProt P25105); assay: Inhibition of human PAF at 10 uM
# in vivo [23] = details: dog, po, 5 mg/kg
# Rattus norvegicus [24] = assay: Procognitive activity in po dosed Sprague-Dawley rat assessed as enhancement of contexual fear conditioning acquistion treated for 30 mins prior to conditioning measured after 24 hrs; format: functional
# Cytochrome P450 2C9 = Cytochrome P450 2C9 (Homo sapiens, UniProt P11712); assay: Inhibition of CYP2C9 (unknown origin); format: ADME
# [25] = Half life in dog at 0.5 mg/kg, iv; format: ADME, organism-based, Canis lupus familiaris; details: in vivo
# [26] = molecular target: T3, Metabotropic glutamate receptor 4; assay: Positive allosteric modulation of human mGlu4 receptor expressed in L929sA cells assessed as calcium mobilization by fluorescence analysis; format: functional, cell-based
# [27] = molecular target: T3, Metabotropic glutamate receptor 4; assay: Positive allosteric modulation of human mGlu4 receptor expressed in HEK293 cells by [35S]-GTPgammaS binding assay; format: functional, cell-based
# Rattus norvegicus [28] = assay: Antipsychotic-like activity in po dosed Sprague-Dawley rat assessed as reversal of amphetamine-induced hyperlocomotion; format: functional
# [29] = Plasma protein binding in human assessed as percentage unbound; format: ADME, cell-free
# [30] = molecular target: Metabotropic glutamate receptor 7 (Homo sapiens, UniProt Q14831); assay: Positive allosteric modulation of human mGlu7 receptor expressed in HEK293 cells assessed as calcium mobilization by fluorescence analysis; format: functional, cell-based
# [31] = Solubility of compound in fed state simulated intestinal fluid; format: ADME; details: simulated gi fluid
# [32] = Volume of distribution at steady state in rat at 2.5 mg/kg, iv; format: ADME, organism-based; details: in vivo, read-out: Vdss
# [33] = molecular target: Metabotropic glutamate receptor 2 (Homo sapiens, UniProt Q14416); assay: Positive allosteric modulation of human mGlu2 receptor expressed in HEK293 cells assessed as calcium mobilization by fluorescence analysis; format: functional, cell-based
# Cytochrome P450 2D6 = Cytochrome P450 2D6 (Homo sapiens, UniProt P10635); assay: Inhibition of CYP2D6 (unknown origin); format: ADME
# Rattus norvegicus [34] = assay: Toxicity in Sprague-Dawley rat assessed as tremors at 25 to 600 mg/kg, po; format: organism-based; details: in vivo
# [35] = Cmax in dog at 5 mg/kg, po; format: ADME, organism-based, Canis lupus familiaris; set-up: dose 5 mg/kg, route oral; details: in vivo
# [36] = AUC (0 to infinity) in dog at 5 mg/kg, po; format: ADME, organism-based, Canis lupus familiaris; set-up: dose 5 mg/kg, time infinity, route oral; details: in vivo
# Rattus norvegicus [37] = assay: Toxicity in Sprague-Dawley rat assessed as pedaling movements of forepaws at 25 to 600 mg/kg, po; format: organism-based; details: in vivo
# [38] = AUC (0 to infinity) in rat at 10 mg/kg, po; format: ADME, organism-based; set-up: dose 10 mg/kg, route oral, time infinity; details: in vivo
# Rattus norvegicus [39] = assay: Antipsychotic-like activity in dosed Sprague-Dawley rat assessed as full reversal of amphetamine-induced hyperlocomotion at 100 mg/kg, po; format: functional, organism-based
# in vivo [40] = details: rat, po, 10 mg/kg
# Description: Tmax in rat at 10 mg/kg, po
# [41] = Inhibition of Calcium channel (unknown origin); set-up: species or system Homo sapiens
# Chain of Metabotropic glutamate receptor 3 (Q14832 whole entry): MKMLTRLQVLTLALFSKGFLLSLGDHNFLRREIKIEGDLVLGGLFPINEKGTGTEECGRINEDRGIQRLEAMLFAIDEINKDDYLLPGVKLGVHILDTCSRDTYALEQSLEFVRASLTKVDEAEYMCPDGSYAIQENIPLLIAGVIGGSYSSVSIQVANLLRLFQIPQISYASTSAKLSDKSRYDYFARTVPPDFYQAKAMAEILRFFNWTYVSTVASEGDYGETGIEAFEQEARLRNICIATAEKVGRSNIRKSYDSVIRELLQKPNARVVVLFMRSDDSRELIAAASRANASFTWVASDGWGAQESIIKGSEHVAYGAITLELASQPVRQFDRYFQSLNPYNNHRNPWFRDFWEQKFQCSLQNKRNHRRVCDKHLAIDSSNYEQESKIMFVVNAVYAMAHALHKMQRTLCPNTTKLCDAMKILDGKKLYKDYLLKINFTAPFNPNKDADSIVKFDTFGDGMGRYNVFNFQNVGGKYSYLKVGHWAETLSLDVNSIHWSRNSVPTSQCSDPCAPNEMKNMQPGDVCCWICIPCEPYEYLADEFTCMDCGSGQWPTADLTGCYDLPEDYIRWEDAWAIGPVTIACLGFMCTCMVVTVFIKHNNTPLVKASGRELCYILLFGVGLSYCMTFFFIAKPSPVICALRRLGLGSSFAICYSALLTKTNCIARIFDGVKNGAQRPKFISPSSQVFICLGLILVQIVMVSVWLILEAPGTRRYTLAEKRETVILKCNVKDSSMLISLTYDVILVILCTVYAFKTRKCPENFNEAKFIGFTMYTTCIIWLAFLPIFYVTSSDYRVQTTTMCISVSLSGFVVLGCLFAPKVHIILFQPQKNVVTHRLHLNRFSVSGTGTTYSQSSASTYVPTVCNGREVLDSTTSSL
# T3 sequence (Q14833 whole entry): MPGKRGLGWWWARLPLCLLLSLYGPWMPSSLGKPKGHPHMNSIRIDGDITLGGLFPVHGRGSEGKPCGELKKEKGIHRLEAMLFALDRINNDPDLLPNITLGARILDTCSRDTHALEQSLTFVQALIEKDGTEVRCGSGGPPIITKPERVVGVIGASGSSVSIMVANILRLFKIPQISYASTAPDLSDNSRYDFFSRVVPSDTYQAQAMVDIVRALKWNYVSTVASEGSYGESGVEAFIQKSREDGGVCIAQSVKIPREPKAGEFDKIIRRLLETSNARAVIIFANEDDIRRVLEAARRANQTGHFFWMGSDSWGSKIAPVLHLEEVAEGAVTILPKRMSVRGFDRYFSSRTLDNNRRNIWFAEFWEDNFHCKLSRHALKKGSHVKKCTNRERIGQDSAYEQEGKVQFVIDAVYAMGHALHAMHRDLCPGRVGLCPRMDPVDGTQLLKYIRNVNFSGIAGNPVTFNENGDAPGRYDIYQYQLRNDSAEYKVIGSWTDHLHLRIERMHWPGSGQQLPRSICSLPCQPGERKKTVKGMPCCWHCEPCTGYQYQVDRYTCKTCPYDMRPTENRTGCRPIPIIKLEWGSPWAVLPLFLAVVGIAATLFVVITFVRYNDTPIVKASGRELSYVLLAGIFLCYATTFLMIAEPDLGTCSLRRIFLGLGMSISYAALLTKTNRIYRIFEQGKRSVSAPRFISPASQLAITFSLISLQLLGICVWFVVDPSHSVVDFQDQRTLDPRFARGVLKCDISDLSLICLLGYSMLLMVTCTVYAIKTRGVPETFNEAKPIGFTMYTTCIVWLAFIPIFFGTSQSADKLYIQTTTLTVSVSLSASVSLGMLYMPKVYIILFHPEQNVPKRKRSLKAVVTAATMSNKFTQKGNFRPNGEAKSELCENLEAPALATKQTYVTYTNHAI
# Chain of Metabotropic glutamate receptor 8 (O00222 whole entry): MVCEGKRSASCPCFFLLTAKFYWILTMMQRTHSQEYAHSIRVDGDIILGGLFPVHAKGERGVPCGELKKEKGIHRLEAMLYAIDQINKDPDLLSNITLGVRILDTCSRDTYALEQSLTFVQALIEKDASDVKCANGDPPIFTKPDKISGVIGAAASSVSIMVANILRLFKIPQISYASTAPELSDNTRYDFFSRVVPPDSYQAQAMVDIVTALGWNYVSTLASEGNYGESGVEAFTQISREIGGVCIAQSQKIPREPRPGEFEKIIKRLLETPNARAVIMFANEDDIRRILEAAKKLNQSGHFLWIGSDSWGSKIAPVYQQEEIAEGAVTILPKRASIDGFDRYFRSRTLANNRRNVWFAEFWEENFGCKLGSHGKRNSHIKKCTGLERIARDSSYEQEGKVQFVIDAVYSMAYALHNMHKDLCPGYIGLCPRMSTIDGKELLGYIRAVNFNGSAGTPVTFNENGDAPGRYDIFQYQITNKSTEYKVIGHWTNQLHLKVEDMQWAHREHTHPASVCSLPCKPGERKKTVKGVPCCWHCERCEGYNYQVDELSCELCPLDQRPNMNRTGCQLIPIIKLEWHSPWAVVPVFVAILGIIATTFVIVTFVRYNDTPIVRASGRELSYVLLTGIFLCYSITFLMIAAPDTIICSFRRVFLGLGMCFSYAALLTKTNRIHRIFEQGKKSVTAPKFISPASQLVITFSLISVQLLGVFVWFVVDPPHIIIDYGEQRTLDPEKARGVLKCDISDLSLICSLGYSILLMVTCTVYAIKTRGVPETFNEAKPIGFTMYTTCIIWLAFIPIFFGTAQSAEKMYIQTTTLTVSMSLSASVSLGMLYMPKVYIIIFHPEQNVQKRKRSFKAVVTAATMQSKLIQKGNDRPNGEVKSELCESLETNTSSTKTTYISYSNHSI
smiles,measurement,setting,value
O=C1c2cc(COc3ccccc3)nn2CCCN1c1ccc(F)cc1,EC50,[1]; read-out: EC50,220 nM
same,EC50,[1]; read-out: pEC50 (converted),87.1 nM
same,Emax,[2],79%
same,EC50,[3],540 nM
O=C1c2cc(COc3ccccc3)nn2CCN1c1ccc(F)cn1,bioavailability,[4],88%
same,fraction unbound,[5],0.055
same,clearance,[6],25 mL/min/kg
same,Activity,Rattus norvegicus [7],Toxic
same,EC50,[8],> 10000 nM
same,IC50,Cytochrome P450 1A2,≥ 30000 nM
same,IC50,Cytochrome P450 3A4,≥ 30000 nM
same,EC50,[9],> 10000 nM
same,bioavailability,[10],48%
same,EC50,[1]; read-out: EC50,130 nM
same,IC50,[11],> 10000 nM
same,clearance,[12],19 mL/min/kg
same,Activity,Rattus norvegicus [13],Toxic
same,EC50,[14],> 10000 nM
same,Cmax,[15],730 ng/mL
same,IC50,[16],> 10000 nM
same,EC50,[17],> 10000 nM
same,Fu,[18],6.8%
same,Vd,[19],2.6 L/kg
same,EC50,[20],> 10000 nM
same,half-life,[21],1.6 h
same,inhibition,[22],57%
same,Tmax,in vivo [23],0.7 h
same,Activity,Rattus norvegicus [24],Dose-dependent effect
same,minimal effective dose,Rattus norvegicus [24]; read-out: MED,0.3 mg/kg
same,Emax,[2],72%
same,IC50,Cytochrome P450 2C9,≥ 30000 nM
same,half-life,[25],2.4 h
same,EC50,[26],> 10000 nM
same,EC50,[27],> 10000 nM
same,Activity,Rattus norvegicus [28],Dose-dependent effect
same,Fu,[29],8.2%
same,EC50,[30],> 10000 nM
same,solubility,[31],13 µg/mL
same,EC50,[3],6760 nM
same,Vd,[32],1.6 L/kg
same,EC50,[33],> 10000 nM
same,IC50,Cytochrome P450 2D6,≥ 30000 nM
same,Activity,Rattus norvegicus [34],Toxic
same,Cmax,[35],519 ng/mL
same,AUC(0-inf),[36],1540 ng·h/mL
same,Activity,Rattus norvegicus [37],Toxic
same,AUC(0-inf),[38],6670 ng·h/mL
same,Activity,Rattus norvegicus [39],Active
same,Tmax,in vivo [40],4 h
same,IC50,[41],> 10000 nM
Cc1ccc(OCc2cc3n(n2)CCN(c2ccc(F)cc2)C3=O)cc1,EC50,[1]; read-out: EC50,300 nM
same,Emax,[2],58%
O=C1c2cc(COc3ccc(F)cc3)nn2CCN1c1ccc(F)cc1,EC50,[1]; read-out: EC50,100 nM
same,Emax,[2],72%
same,EC50,[3],34 nM
O=C1c2cc(COc3ccccc3)nn2CCN1c1cccc(F)c1,EC50,[1]; read-out: EC50,130 nM
same,Emax,[2],81%
O=C1c2cc(COc3ccccn3)nn2CCN1c1ccc(F)cc1,EC50,[1]; read-out: EC50,490 nM
same,Emax,[2],68%
same,EC50,[3],290 nM
O=C1c2cc(COc3ccc(F)cn3)nn2CCN1c1ccc(F)cc1,EC50,[1]; read-out: EC50,7940 nM
same,Emax,[2],52%
COc1ccc(N2CCn3nc(COc4ccccc4)cc3C2=O)cc1,EC50,[1]; read-out: EC50,110 nM
same,Emax,[2],58%
CC(Oc1ccccc1)c1cc2n(n1)CCN(c1ccc(F)cc1)C2=O (centres undefined),EC50,[1]; read-out: EC50,7760 nM
same,Emax,[2],65%
O=C1c2cc(COc3cccc(F)c3)nn2CCN1c1ccc(F)cn1,EC50,[1]; read-out: EC50,91 nM
same,Emax,[2],62%
O=C1c2cc(COc3ccccc3)nn2CCN1c1ccccc1F,EC50,[1]; read-out: EC50,160 nM
same,Emax,[2],86%
O=C1c2cc(OCc3ccccc3)nn2CCN1c1ccc(F)cc1,fraction unbound,[5],0.065
same,EC50,[8],> 10000 nM
same,EC50,[9],> 10000 nM
same,EC50,[1]; read-out: EC50,160 nM
same,EC50,[14],> 10000 nM
same,EC50,[17],> 10000 nM
same,EC50,[20],> 10000 nM
same,Emax,[2],54%
same,EC50,[26],> 10000 nM
same,EC50,[27],> 10000 nM
same,EC50,[30],> 10000 nM
same,EC50,[3],3390 nM
same,EC50,[33],> 10000 nM
O=C1c2cc(COc3cccc(F)c3)nn2CCN1c1ccc(F)cc1,EC50,[1]; read-out: EC50,100 nM
same,Emax,[2],70%
O=C1c2cc(COc3ccccc3)nn2CCN1c1cccnc1,EC50,[1]; read-out: EC50,2090 nM
same,Emax,[2],64%
O=C1c2nc(COc3ccccc3)nn2CCN1c1ccc(F)cc1,EC50,[1]; read-out: EC50,2340 nM
same,Emax,[2],65%
